According to patent US8895550B2, “Triazolopyridine compounds as PIM kinase inhibitors” (Array BioPharma Inc., priority 2008, dated 2014):

Experiments:
Assay type in all cases: biochemical
PIM-1 = PIM-1 (Homo sapiens, UniProt P11309); test: Enzyme PIM-1 Assay (radiometric [33P]ATP incorporation into PIM2tide, filter plate); conditions: 35 μM ATP, 7.5 μM PIM2tide, 0.25 nM PIM-1, 60 min at 22° C.; high dose 10 μM
Protocol: (§1) The assay for the determination of PIM-1 activity is based on the incorporation of [^33P]PO4 from [γ-^33P]ATP into PIM2tide substrate and capture of the radiolabeled peptide onto a Whatman P81 (phosphocellulose) filter plate. The amount of radiolabeled product is then measured by liquid scintillation counting. The final buffer conditions were as follows: 20 mM K^+MOPS, pH 7.4, 10 mM MgCl2, 0.005% Tween-20, 1 mM DTT. Assay mixtures contained 35 μM [γ-^33P]ATP (20 μCi/mL), 7.5 μM PIM2tide and 0.25 nM PIM-1 in a total volume of 50 μL. Incubations were carried out for 60 min at 22° C. and quenched with 75 μL, of 200 mM H3PO4, filtered through a Whatman P81 plate and washed (1×200 μL and 5×100 μL) with 200 mM H3PO4. Fifty μL of liquid scintillation cocktail were then added per well, and the plate was counted for 30 s/well using a TopCount NXT.
(§2) Compounds were prepared at 50× the final concentration in DMSO by conducting 3-fold serial dilutions from a 500-μM intermediate dilution to give a 10-point dosing curve having a high dose of 10 μM. One-μL aliquots of these were then transferred to the assay mixtures above to give a final concentration of DMSO of 2%. A standard or reference compound was typically included on each assay plate to validate that plate. For each plate, percent of control (POC) values were calculated for each well. IC50's were estimated from the POC's using a standard 4-parameter logistic model. The IC50 is defined as the concentration of inhibitor at which the POC equals 50 for the fitted curve.

[1] = molecular target: T1, GST-tagged recombinant full-length human Pim-2 (Homo sapiens, UniProt Q9P1W9); test: PIM-2 Assay (as Example A with GST-tagged recombinant full-length human Pim-2); conditions: 4 μM ATP, 1.0 μM PIM2tide, 1.5 nM Pim-2; high dose 10 μM
T1 construct: GST-tagged recombinant full-length human Pim-2; GST
T1 sequence (Q9P1W9 whole entry): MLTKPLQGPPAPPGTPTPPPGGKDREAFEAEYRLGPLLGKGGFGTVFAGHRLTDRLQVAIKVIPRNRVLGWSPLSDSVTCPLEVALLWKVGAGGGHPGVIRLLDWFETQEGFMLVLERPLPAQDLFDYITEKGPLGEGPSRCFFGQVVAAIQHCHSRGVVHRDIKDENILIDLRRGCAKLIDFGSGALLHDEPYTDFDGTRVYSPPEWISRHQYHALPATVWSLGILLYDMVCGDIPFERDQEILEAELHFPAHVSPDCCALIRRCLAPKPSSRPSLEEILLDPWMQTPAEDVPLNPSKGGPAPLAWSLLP
Protocol: as §1, §2
Assay was performed as described in Example A, using 4 μM [γ-^33P]ATP (20 μCi/mL), 1.0 μM PIM2tide and 1.5 nM GST-tagged recombinant full-length human Pim-2 in place of PIM-1.

recombinant rat PIM-3 = recombinant rat PIM-3 (Rattus norvegicus, UniProt O70444); test: PIM-3 Assay (as Example A with recombinant rat PIM-3); conditions: 30 μM ATP, 3.75 μM PIM2tide, 0.5 nM PIM-3; high dose 10 μM
Protocol: as §1, §2
Assay was performed as described in Example A, using 30 μM [γ-^33P]ATP (20 μCi/mL), 3.75 μM PIM2tide and 0.5 nM recombinant rat PIM-3 in place of PIM-1.

Sequence of PIM-1 (P11309 whole entry, species assumed): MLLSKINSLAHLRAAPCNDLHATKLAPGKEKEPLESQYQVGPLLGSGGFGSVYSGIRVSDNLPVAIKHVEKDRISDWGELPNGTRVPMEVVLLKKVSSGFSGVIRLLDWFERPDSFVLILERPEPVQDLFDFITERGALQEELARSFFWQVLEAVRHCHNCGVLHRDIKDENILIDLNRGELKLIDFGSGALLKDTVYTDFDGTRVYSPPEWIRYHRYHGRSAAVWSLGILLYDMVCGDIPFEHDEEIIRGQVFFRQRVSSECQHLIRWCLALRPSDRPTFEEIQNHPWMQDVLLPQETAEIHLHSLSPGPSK

SMILES | IC50 (PIM-1) [µM] | IC50 [1] [µM] | IC50 (recombinant rat PIM-3) [µM]
N[C@@H]1CCN(c2cccc3ccc(-c4nnc5ccccn45)nc23)C[C@@H]1F (relative stereo) [Example 27, (cis)-1-(2-([1,2,4]triazolo[4,3-a]pyridin-3-yl)quinolin-8-yl)-3-fluoropiperidin-4-amine] | 0.034 | 0.57 | 0.038
COCCOc1ccn2c(-c3ccc4cccc(N5CCNCC5)c4n3)nnc2c1 [Example 1, 2-(7-(2-Methoxyethoxy)-[1,2,4]triazolo[4,3-a]pyridin-3-yl)-8-(piperazin-1-yl)quinoline] | 0.255 | ≥ 10 | 0.554
COc1ccn2c(-c3ccc4cccc(N5CCNCC5)c4n3)nnc2c1 [Example 2, 2-(7-Methoxy-[1,2,4]triazolo[4,3-a]pyridin-3-yl)-8-(piperazin-1-yl)quinoline] | 0.179 | ≥ 10 | 
COc1ccn2c(-c3ccc4cccc(N5CCOCC5)c4n3)nnc2c1 [Example 4, 4-(2-(7-Methoxy-[1,2,4]triazolo[4,3-a]pyridin-3-yl)quinolin-8-yl)morpholine] | 2.79 | ≥ 10 | 
c1cc(N2CCCCC2)c2nc(-c3nnc4ccccn34)ccc2c1 [Example 5, 2-([1,2,4]Triazolo[4,3-a]pyridin-3-yl)-8-(piperidin-1-yl)quinoline] | 0.024 | 2.6 | 0.121
c1cc(N2CCNCC2)c2nc(-c3nnc4ccccn34)ccc2c1 [Example 6, 2-([1,2,4]Triazolo[4,3-a]pyridin-3-yl)-8-(piperazin-1-yl)quinoline] | 0.031 | 2.98 | 0.105
C[C@@H]1CN(c2cccc3ccc(-c4nnc5ccccn45)nc23)C[C@H](C)N1 [Example 8, 2-([1,2,4]Triazolo[4,3-a]pyridin-3-yl)-8-((cis)-3,5-dimethylpiperazin-1-yl)quinoline] | 0.054 | ≥ 10 | 0.189
NCC1CCN(c2cccc3ccc(-c4nnc5cc(CO)ccn45)nc23)CC1 [Example 11, (3-(8-(4-(Aminomethyl)piperidin-1-yl)quinolin-2-yl)-[1,2,4]triazolo[4,3-a]pyridin-7-yl)methanol] | 0.084 | 2.6 | 0.217
NCC1CCN(c2ccc(F)c3ccc(-c4nnc5ccccn45)nc23)CC1 [Example 17, (1-(2-([1,2,4]triazolo[4,3-a]pyridin-3-yl)-5-fluoroquinolin-8-yl)piperidin-4-yl)methanamine] | 0.077 | 1.96 | 0.051
NCC1CCN(c2cc(Cl)cc3ccc(-c4nnc5ccccn45)nc23)CC1 [Example 18, (1-(2-([1,2,4]Triazolo[4,3-a]pyridin-3-yl)-6-chloroquinolin-8-yl)piperidin-4-yl)methanamine] | 0.032 | 0.736 | 0.025
OC1CCCN(c2cccc3ccc(-c4nnc5ccccn45)nc23)C1 (stereo not drawn) [Example 20, 1-(2-([1,2,4]triazolo[4,3-a]pyridin-3-yl)quinolin-8-yl)piperidin-3-ol] | 0.048 | 2.38 | 
N[C@H]1CCCN(c2cccc3ccc(-c4nnc5ccccn45)nc23)C1 [Example 22, (S)-1-(2-([1,2,4]triazolo[4,3-a]pyridin-3-yl)quinolin-8-yl)piperidin-3-amine] | 0.27 | 3.1 | 
Cc1nc(CN2CCN(c3cccc4ccc(-c5nnc6ccccn56)nc34)CC2)cs1 [Example 24, 4-((4-(2-([1,2,4]triazolo[4,3-a]pyridin-3-yl)quinolin-8-yl)piperazin-1-yl)methyl)-2-methylthiazole] | 0.15 | ≥ 10 | 
CC1CCCN(c2c(Br)ccc3ccc(-c4nnc5ccccn45)nc23)C1 (stereo not drawn) [Example 25, 2-([1,2,4]triazolo[4,3-a]pyridin-3-yl)-7-bromo-8-(3-methylpiperidin-1-yl)quinoline] | 0.128 | 3.02 | 

The next lines start with the values.

IC50 (PIM-1) [µM] | IC50 [1] [µM] | IC50 (recombinant rat PIM-3) [µM] | SMILES
0.024 | 2.31 | 0.06 | COc1ccn2c(-c3ccc4cccc(N5CCC(N)CC5)c4n3)nnc2c1 [Example 3, 1-(2-(7-Methoxy-[1,2,4]triazolo[4,3-a]pyridin-3-yl)quinolin-8-yl)piperidin-4-amine]
0.017 | 3.59 | 0.105 | C[C@@H]1CN(c2cccc3ccc(-c4nnc5ccccn45)nc23)CCN1 [Example 7, (R)-2-([1,2,4]Triazolo[4,3-a]pyridin-3-yl)-8-(3-methylpiperazin-1-yl)quinoline]
0.011 | 0.543 | 0.024 | NC1CCN(c2cccc3ccc(-c4nnc5ccccn45)nc23)CC1 [Example 9, 1-(2-([1,2,4]Triazolo[4,3-a]pyridin-3-yl)quinolin-8-yl)piperidin-4-amine]
0.003 | 0.224 | 0.013 | NCC1CCN(c2cccc3ccc(-c4nnc5ccccn45)nc23)CC1 [Example 10, (1-(2-([1,2,4]Triazolo[4,3-a]pyridin-3-yl)quinolin-8-yl)piperidin-4-yl)methanamine]
0.003 | 0.092 | 0.004 | CCNCc1ccn2c(-c3ccc4cccc(N5CCC(CN)CC5)c4n3)nnc2c1 [Example 12, N-((3-(8-(4-(aminomethyl)piperidin-1-yl)quinolin-2-yl)-[1,2,4]triazolo[4,3-a]pyridin-7-yl)methyl)ethanamine]
0.002 | 0.029 | 0.004 | NCc1ccn2c(-c3ccc4cccc(N5CCC(CN)CC5)c4n3)nnc2c1 [Example 13, (1-(2-(7-(Aminomethyl)-[1,2,4]triazolo[4,3-a]pyridin-3-yl)quinolin-8-yl)piperidin-4-yl)methanamine]
0.004 | 0.509 | 0.02 | NCC1CCN(c2cccc3ccc(-c4nnc5cc(C(O)CO)ccn45)nc23)CC1 (stereo not drawn) [Example 14, 1-(3-(8-(4-(Aminomethyl)piperidin-1-yl)quinolin-2-yl)-[1,2,4]triazolo[4,3-a]pyridin-7-yl)ethane-1,2-diol]
0.015 | 2.08 |  | OCC1CCCN(c2cccc3ccc(-c4nnc5ccccn45)nc23)C1 (stereo not drawn) [Example 15, (1-(2-([1,2,4]Triazolo[4,3-a]pyridin-3-yl)quinolin-8-yl)piperidin-3-yl)methanol]
0.003 | 0.185 | 0.01 | NCC1CCN(c2cc(F)cc3ccc(-c4nnc5ccccn45)nc23)CC1 [Example 16, (1-(2-([1,2,4]triazolo[4,3-a]pyridin-3-yl)-6-fluoroquinolin-8-yl)piperidin-4-yl)methanamine]
0.018 | 1.8 |  | CC1CCCN(c2cccc3ccc(-c4nnc5ccccn45)nc23)C1 (stereo not drawn) [Example 19, 2-([1,2,4]triazolo[4,3-a]pyridin-3-yl)-8-(3-methylpiperidin-1-yl)quinoline]
0.007 | 0.142 |  | N[C@@H]1CCCN(c2cccc3ccc(-c4nnc5ccccn45)nc23)C1 [Example 21, (R)-1-(2-([1,2,4]triazolo[4,3-a]pyridin-3-yl)quinolin-8-yl)piperidin-3-amine]
0.022 | 0.647 | 0.062 | CC1(C)CN(c2cccc3ccc(-c4nnc5ccccn45)nc23)CCN1 [Example 23, 2-([1,2,4]triazolo[4,3-a]pyridin-3-yl)-8-(3,3-dimethylpiperazin-1-yl)quinoline]
0.021 | 0.613 | 0.062 | CC1(N)CCN(c2cccc3ccc(-c4nnc5ccccn45)nc23)CC1 [Example 26, 1-(2-([1,2,4]triazolopyridin-3-yl)quinolin-8-yl)-4-methylpiperidin-4-amine]
